The results in this text go back to PubChem BioAssay (NCI).

Molecules are shown by their SMILES.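 Grown in 96-well plates, cells were treated for 48 hours with each compound at five concentrations. Insufficient inhibition: endpoint recorded as highest concentration tested. GI50 marks 50% less growth. TGI: total growth inhibition.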 Bounds are passed on as bounds.

Some test systems named below: UO-31 renal; OVCAR-3 ovarian; SK-OV-3 ovarian; K-562 leukemia; MDA-MB-231 breast; HCT-15 colon; TK-10 renal; SK-MEL-5 melanoma; SR leukemia; MDA-MB-435.
Common to all, as to test: inhibition of tumour cell growth, NCI panel, 48 h

For the compound `Clc1ccccc1-c1nc2ccccc2[nH]1`, the GI50 is 90.8 µM in the test with UO-31 renal; over 100 µM in the test with OVCAR-3 ovarian; over 100 µM with SK-OV-3 ovarian; 80.2 µM with K-562 leukemia; over 100 µM in the test with MDA-MB-231 breast; over 100 µM with HCT-15 colon. Further, the GI50 with TK-10 renal, in the test on SK-MEL-5 melanoma, in the test with SR leukemia and in the test with MDA-MB-435 was over 100 µM throughout. The TGI in the test with UO-31 renal, in the test with OVCAR-3 ovarian, in the test with SK-OV-3 ovarian, in the test with K-562 leukemia, in the test with MDA-MB-231 breast and in the test with HCT-15 colon was over 100 µM throughout. Also, the TGI in the test with TK-10 renal, in the test on SK-MEL-5 melanoma, in the test on SR leukemia and in the test on MDA-MB-435 was over 100 µM in each case.

Regarding `CC(=O)OCCC/C(=C\c1ccc2ccccc2c1)[N+](=O)[O-]`, the GI50 in the test on UO-31 renal was 1.16 µM; with OVCAR-3 ovarian, 1.52 µM; with SK-OV-3 ovarian, 5.26 µM; in the test on K-562 leukemia, 2.01 µM; with MDA-MB-231 breast, 2.02 µM; in the test with HCT-15 colon, 1.61 µM. The GI50 in the test on TK-10 renal is 1.58 µM; in the test with SK-MEL-5 melanoma it was 1.72 µM; in the test with SR leukemia it was 1.67 µM; in the test on MDA-MB-435, 1.53 µM. The TGI with UO-31 renal was 2.6 µM; in the test on OVCAR-3 ovarian it was 3.08 µM; in the test on SK-OV-3 ovarian, 18.5 µM; in the test with K-562 leukemia, over 100 µM; in the test with MDA-MB-231 breast it was 4.59 µM; in the test on HCT-15 colon it was 3.42 µM. The TGI was 3.4 µM in the test with TK-10 renal, 3.29 µM in the test on SK-MEL-5 melanoma, over 100 µM in the test on SR leukemia and 3.77 µM in the test on MDA-MB-435.

Take `COc1cc2c(cc1OCCCCC(=O)Nc1ccc(-c3nc4ccccc4s3)cc1)N=C[C@@H]1CCCN1C2=O`: the GI50 in the test with UO-31 renal was 1.66 µM; with OVCAR-3 ovarian, 1.86 µM; in the test with SK-OV-3 ovarian it was 4.48 µM; in the test with K-562 leukemia, 1.75 µM; in the test on MDA-MB-231 breast it was 2.08 µM; in the test on HCT-15 colon, 2.85 µM. In addition, the GI50 is 3.2 µM in the test on TK-10 renal, 1.76 µM in the test on SK-MEL-5 melanoma, 0.548 µM in the test on SR leukemia and 1.76 µM in the test on MDA-MB-435. For the same compound, the TGI with UO-31 renal turned out to be 3.66 µM; in the test on OVCAR-3 ovarian, 8.01 µM; in the test with SK-OV-3 ovarian, 14.5 µM; in the test with K-562 leukemia, 11 µM; with MDA-MB-231 breast it was 10.2 µM; with HCT-15 colon it was 9.81 µM. The TGI is 7.97 µM with TK-10 renal, 3.17 µM in the test on SK-MEL-5 melanoma, 9.48 µM in the test with SR leukemia and 3.45 µM in the test with MDA-MB-435.
